Data published in patent US11986471B2, “Compounds and methods of use” (Tango Therapeutics, Inc., priority 2018, dated 2024).

Assays:
HAP1 MTAP-intact = assay: SDMA in-cell western assay, HAP1 MTAP-intact cell line; type: cell-based; conditions: Homo sapiens
Outline: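 HAP1 isogenic pair: endogenous MTAP vs MTAP-null. Readout SDMA by in-cell western; IC50 per line. Ratio ≥3 fold = MTAP-selective.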

PRMT5 [1] = target: T1, PRMT5 (Homo sapiens, UniProt O14744); assay: PRMT5 IC50 assay in the presence of SAM as cofactor; type: biochemical
T1 construct: purchased Viva (custom protein)
T1 sequence (O14744 whole entry): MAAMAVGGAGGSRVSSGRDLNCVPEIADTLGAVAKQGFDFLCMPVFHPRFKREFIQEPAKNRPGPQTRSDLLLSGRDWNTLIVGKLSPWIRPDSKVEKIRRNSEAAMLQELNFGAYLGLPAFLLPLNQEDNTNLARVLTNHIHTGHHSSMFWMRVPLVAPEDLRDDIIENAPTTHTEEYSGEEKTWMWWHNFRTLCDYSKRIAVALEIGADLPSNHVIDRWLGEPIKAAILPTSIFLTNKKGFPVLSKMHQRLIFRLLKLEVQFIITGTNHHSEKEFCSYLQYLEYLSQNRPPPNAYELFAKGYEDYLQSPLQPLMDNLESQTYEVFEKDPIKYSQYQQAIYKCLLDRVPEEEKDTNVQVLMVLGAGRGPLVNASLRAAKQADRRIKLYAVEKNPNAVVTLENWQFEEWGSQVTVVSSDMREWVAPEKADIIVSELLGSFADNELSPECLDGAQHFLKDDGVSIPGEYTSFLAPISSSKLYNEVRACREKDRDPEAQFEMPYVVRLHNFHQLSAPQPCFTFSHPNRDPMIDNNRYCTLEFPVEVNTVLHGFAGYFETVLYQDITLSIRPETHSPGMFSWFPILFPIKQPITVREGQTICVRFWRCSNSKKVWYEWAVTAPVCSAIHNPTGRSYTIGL
T1 sequence (Q9BQA1 whole entry partner): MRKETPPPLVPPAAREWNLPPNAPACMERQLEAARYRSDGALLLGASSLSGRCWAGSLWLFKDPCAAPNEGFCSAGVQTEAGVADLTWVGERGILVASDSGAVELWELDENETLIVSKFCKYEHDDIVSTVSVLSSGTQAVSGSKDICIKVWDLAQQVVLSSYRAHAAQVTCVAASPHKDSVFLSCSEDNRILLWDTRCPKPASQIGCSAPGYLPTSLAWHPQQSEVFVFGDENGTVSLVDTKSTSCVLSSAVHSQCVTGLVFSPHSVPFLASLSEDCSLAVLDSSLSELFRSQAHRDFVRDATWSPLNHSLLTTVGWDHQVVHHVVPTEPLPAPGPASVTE
Outline: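 Three cofactor conditions tested for PRMT5 inhibition: none, MTA and SAM, each giving an IC50. For conversion to Ki, the MTA-condition IC50 is divided by 13.5 and the SAM-condition IC50 by 1.5, and the two Ki values are expressed as a SAM/MTA ratio.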

PRMT5 [2] = target: T1, PRMT5; assay: PRMT5 IC50 assay with no cofactor; type: biochemical
Outline: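 Ki conversion: SAM arm, Ki=IC50/1.5; MTA arm, Ki=IC50/13.5. No-cofactor arm reported as IC50 only. Selectivity expressed as Ki(SAM)/Ki(MTA).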

PRMT5 [3] = target: T1, PRMT5; assay: PRMT5 IC50 assay in the presence of MTA as cofactor; type: biochemical; conditions: for IC50: PRMT5, MTA as cofactor; for SAM/MTA Ratio: ratio between the Ki in the presence of SAM and the Ki in the presence of MTA
Outline: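 Three cofactor conditions are run: SAM-bound, MTA-bound and cofactor-free enzyme. IC50 is read from each; for the SAM and MTA arms it is divided by 1.5 and 13.5 respectively to give Ki.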

HAP1 MTAP-deleted = assay: SDMA in-cell western assay, HAP1 MTAP-deleted cell line; type: cell-based; conditions: for IC50: Homo sapiens, HAP1 MTAP-deleted cell line; for MTAP Intact/Deleted Ratio: IC50 ratio HAP1 MTAP-intact / HAP1 MTAP-deleted
Outline: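 IC50 from SDMA in-cell western; HAP1 line lacking MTAP (null), paired isogenically with MTAP-intact HAP1 expressing endogenous MTAP.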

Row | SMILES | IC50 (HAP1 MTAP-intact) [nM] | IC50 (PRMT5 [1]) [nM] | IC50 (PRMT5 [2]) [nM] | IC50 (PRMT5 [3]) [nM] | SAM/MTA Ratio (PRMT5 [3]) | IC50 (HAP1 MTAP-deleted) [nM] | MTAP Intact/Deleted Ratio (HAP1 MTAP-deleted)
1 | Cc1ncoc1COc1ccc2c(c1Cl)CCN(C[C@@H](O)CNC(=O)c1cc(NC3CCCCC3)ncn1)C2 [Compound 501, N-[(2S)-3-[5-chloro-6-[(4-methyl-1,3-oxazol-5-yl)methoxy]-1,2,3,4-tetrahydroisoquinolin-2-yl]-2-hydroxypropyl]-6-(cyclohexylamino)pyrimidine-4-carboxamide] | ≥ 10000 | 50 to 500 | ≥ 5000 | 50 to 500 | A (a Ki ratio greater than or equal to 10 fold between the Ki in the presence of SAM and the Ki in the presence of MTA) | ≥ 10000 | C* (an IC50 ratio of less than 3 fold between the IC50 in the HAP1 MTAP-intact cell line and the HAP1 MTAP-deleted cell line)
2 | CC(=O)N1CCN(c2cc(C(=O)NC[C@H](O)CN3CCc4c(ccc(OCc5ocnc5C)c4C)C3)cc(NC3CCC3)n2)CC1 [Compound 502, 2-(4-acetylpiperazin-1-yl)-6-(cyclobutylamino)-N-[(2S)-2-hydroxy-3-{5-methyl-6-[(4-methyl-1,3-oxazol-5-yl)methoxy]-1,2,3,4-tetrahydroisoquinolin-2-yl}propyl]pyridine-4-carboxamide] | 1000 to 10000 | 50 to 500 | 500 to 5000 | 50 to 500 | A (a Ki ratio greater than or equal to 10 fold between the Ki in the presence of SAM and the Ki in the presence of MTA) | < 1000 | A* (an IC50 ratio greater than or equal to 10 fold between the IC50 in the HAP1 MTAP-intact cell line and the HAP1 MTAP-deleted cell line)
3 | Cc1ncoc1COc1ccc2c(c1C)CCN(C[C@@H](O)CNC(=O)c1cc(NC3CCC3)nc(N3CCN(C)CC3)c1)C2 [Compound 503, 2-(cyclobutylamino)-N-[(2S)-2-hydroxy-3-{5-methyl-6-[(4-methyl-1,3-oxazol-5-yl)methoxy]-1,2,3,4-tetrahydroisoquinolin-2-yl}propyl]-6-(4-methylpiperazin-1-yl)pyridine-4-carboxamide] | ≥ 10000 | 50 to 500 | 500 to 5000 | 50 to 500 | A (a Ki ratio greater than or equal to 10 fold between the Ki in the presence of SAM and the Ki in the presence of MTA) | < 1000 | A* (an IC50 ratio greater than or equal to 10 fold between the IC50 in the HAP1 MTAP-intact cell line and the HAP1 MTAP-deleted cell line)
4 | Cc1ncoc1COc1ccc2c(c1C)CCN(C[C@@H](O)CNC(=O)c1cc(CC(C)C)nc(NC3CCC3)c1)C2 [Compound 504, 2-(cyclobutylamino)-N-[(2S)-2-hydroxy-3-{5-methyl-6-[(4-methyl-1,3-oxazol-5-yl)methoxy]-1,2,3,4-trihydroisoquinolin-2-yl}propyl]-6-(2-methylpropyl)pyridine-4-carboxamide] | ≥ 10000 | 50 to 500 | ≥ 5000 | 50 to 500 | A (a Ki ratio greater than or equal to 10 fold between the Ki in the presence of SAM and the Ki in the presence of MTA) | ≥ 10000 | C* (an IC50 ratio of less than 3 fold between the IC50 in the HAP1 MTAP-intact cell line and the HAP1 MTAP-deleted cell line)
5 | Cc1ncoc1COc1cc(F)c2c(c1)CCN(C[C@@H](O)CNC(=O)c1ccnc(NC3CCC3)c1)C2 [Compound 506, 2-(cyclobutylamino)-N-[(2S)-3-[8-fluoro-6-[(4-methyloxazol-5-yl)methoxy]-3,4-dihydro-1H-isoquinolin-2-yl]-2-hydroxy-propyl]pyridine-4-carboxamide] | ≥ 10000 | 50 to 500 | ≥ 5000 | 50 to 500 | A (a Ki ratio greater than or equal to 10 fold between the Ki in the presence of SAM and the Ki in the presence of MTA) | 1000 to 10000 | B* (an IC50 ratio greater than or equal to 3 fold but lower than 10 fold between the IC50 in the HAP1 MTAP-intact cell line and the HAP1 MTAP-deleted cell line)
6 | CC(=O)N1CCC(Nc2ccnc(C(=O)NC[C@H](O)CN3CCc4cc(OCc5cnco5)ccc4C3)c2)CC1 [Compound 507, (S)-4-((1-acetylpiperidin-4-yl)amino)-N-(2-hydroxy-3-(6-(oxazol-5-ylmethoxy)-3,4-dihydroisoquinolin-2(1H)-yl)propyl)picolinamide] | ≥ 10000 | 50 to 500 | 500 to 5000 | 50 to 500 | A (a Ki ratio greater than or equal to 10 fold between the Ki in the presence of SAM and the Ki in the presence of MTA) | 1000 to 10000 | B* (an IC50 ratio greater than or equal to 3 fold but lower than 10 fold between the IC50 in the HAP1 MTAP-intact cell line and the HAP1 MTAP-deleted cell line)
7 | O=C(NC[C@H](O)CN1CCc2cc(OCc3cnco3)ccc2C1)c1cc(NC2CCC2)ccn1 [Compound 509, (S)-4-(cyclobutylamino)-N-(2-hydroxy-3-(6-(oxazol-5-ylmethoxy)-3,4-dihydroisoquinolin-2(1H)-yl)propyl)picolinamide] | 1000 to 10000 | 500 to 5000 | 500 to 5000 | 50 to 500 | A (a Ki ratio greater than or equal to 10 fold between the Ki in the presence of SAM and the Ki in the presence of MTA) | < 1000 | C* (an IC50 ratio of less than 3 fold between the IC50 in the HAP1 MTAP-intact cell line and the HAP1 MTAP-deleted cell line)
8 | CC(=O)N1CC(Nc2cc(C(=O)NC[C@H](O)CN3CCc4c(ccc(OCc5cnco5)c4C)C3)ccn2)C1 [Compound 512, (S)-2-((1-acetylazetidin-3-yl)amino)-N-(2-hydroxy-3-(5-methyl-6-(oxazol-5-ylmethoxy)-3,4-dihydroisoquinolin-2(1H)-yl)propyl)isonicotinamide] | ≥ 10000 | 50 to 500 | ≥ 5000 | 50 to 500 | A (a Ki ratio greater than or equal to 10 fold between the Ki in the presence of SAM and the Ki in the presence of MTA) | ≥ 10000 | C* (an IC50 ratio of less than 3 fold between the IC50 in the HAP1 MTAP-intact cell line and the HAP1 MTAP-deleted cell line)
9 | O=C(NC[C@H](O)CN1CCc2cc(OCc3cnco3)c(F)cc2C1)c1ccnc(NC2CCC2)c1 [Compound 513, 2-(cyclobutylamino)-N-[(2S)-3-[7-fluoro-6-(oxazol-5-ylmethoxy)-3,4-dihydro-1H-isoquinolin-2-yl]-2-hydroxy-propyl]pyridine-4-carboxamide] | ≥ 10000 | 500 to 5000 | ≥ 5000 | 50 to 500 | A (a Ki ratio greater than or equal to 10 fold between the Ki in the presence of SAM and the Ki in the presence of MTA) | 1000 to 10000 | B* (an IC50 ratio greater than or equal to 3 fold but lower than 10 fold between the IC50 in the HAP1 MTAP-intact cell line and the HAP1 MTAP-deleted cell line)
10 | Cc1c(OCc2cnco2)ccc2c1CCN(C[C@@H](O)CNC(=O)c1cc(NC3CCC3)ccn1)C2 [Compound 515, 4-(cyclobutylamino)-N-[(2S)-2-hydroxy-3-{5-methyl-6-[(1,3-oxazol-5-yl)methoxy]-1,2,3,4-tetrahydroisoquinolin-2-yl}propyl]pyridine-2-carboxamide] | 1000 to 10000 | 500 to 5000 | ≥ 5000 | 50 to 500 | A (a Ki ratio greater than or equal to 10 fold between the Ki in the presence of SAM and the Ki in the presence of MTA) | 1000 to 10000 | C* (an IC50 ratio of less than 3 fold between the IC50 in the HAP1 MTAP-intact cell line and the HAP1 MTAP-deleted cell line)
11 | Cc1ncoc1COc1ccc2c(c1)CCN(C[C@@H](O)CNC(=O)c1cc(NC3CCC3)ccn1)C2 [Compound 516, 4-(cyclobutylamino)-N-[(2S)-2-hydroxy-3-(6-[(4-methyl-1,3-oxazol-5-yl)methoxy]-1,2,3,4-tetrahydroisoquinolin-2-yl}propyl]pyridine-2-carboxamide] | < 1000 | 50 to 500 | 500 to 5000 | 50 to 500 | A (a Ki ratio greater than or equal to 10 fold between the Ki in the presence of SAM and the Ki in the presence of MTA) | < 1000 | C* (an IC50 ratio of less than 3 fold between the IC50 in the HAP1 MTAP-intact cell line and the HAP1 MTAP-deleted cell line)
12 | CC(=O)N1CCC(Nc2cc(C(=O)NC[C@H](O)CN3CCc4c(ccc(OCc5cnco5)c4C)C3)ccn2)CC1 [Compound 517] | ≥ 10000 | 50 to 500 | 500 to 5000 | 50 to 500 | A (a Ki ratio greater than or equal to 10 fold between the Ki in the presence of SAM and the Ki in the presence of MTA) | 1000 to 10000 | B* (an IC50 ratio greater than or equal to 3 fold but lower than 10 fold between the IC50 in the HAP1 MTAP-intact cell line and the HAP1 MTAP-deleted cell line)
